According to patent publication US11091478B2 (Fochon Pharmaceuticals, Ltd., priority 2017, dated 2021):

Experiments:
RS4;11 cells = experiment: Cell proliferation assay (MTS), RS4;11 cells, 72 h; format: cell-based; conditions: Homo sapiens, RS4-11, 72 h
Outline: (§1)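 Proliferation was scored by MTS (2 h, then SDS stop, A490 with 650 nm reference) and IC50 derived. Compound ran at nine final concentrations from 1.5 to 10000 nM. DOHH2 were incubated 120 h and RS4;11 72 h, both plated at 5000 cells/well in RPMI-1640 plus 10% FBS.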

DOHH2 cells = experiment: Cell proliferation assay (MTS), DOHH2 cells, 120 h; format: cell-based; conditions: Homo sapiens, DOHH-2, 120 h
Outline: as §1

| Compound | IC50 (RS4;11 cells) [nM] | IC50 (DOHH2 cells) [nM] |
| --- | --- | --- |
| CC1(C)CCC(CN2CCN(c3ccc(C(=O)NS(=O)(=O)c4cc5c(c([N+](=O)[O-])c4)N[C@H](C4CCOCC4)CO5)c(Oc4cnc5[nH]ccc5c4)c3)CC2)=C(c2ccc(Cl)cc2)C1 [Example 2-186, (R)-2-((1H-pyrrolo[2,3-b]pyridin-5-yl)oxy)-4-(4-((4′-chloro-5,5-dimethyl-3,4,5,6-tetra-hydro-[1,1′-biphenyl]-2-yl)methyl)piperazin-1-yl)-N-((5-nitro-3-(tetrahydro-2H-pyran-4-yl)-3,4-dihydro-2H-benzo[b][1,4]oxazin-7-yl)sulfonyl)benzamide] | 1 | 13 |
| CC1(C)CCC(CN2CCN(c3ccc(C(=O)NS(=O)(=O)c4cc5c(c([N+](=O)[O-])c4)N[C@@H](C4CCOCC4)CO5)c(Oc4cnc5[nH]ccc5c4)c3)CC2)=C(c2ccc(Cl)cc2)C1 [Example 2-187, (S)-2-((1H-pyrrolo[2,3-b]pyridin-5-yl)oxy)-4-(4-((4′-chloro-5,5-dimethyl-3,4,5,6-tetra-hydro-[1,1′-biphenyl]-2-yl)methyl)piperazin-1-yl)-N-((5-nitro-3-(tetrahydro-2H-pyran-4-yl)-3,4-dihydro-2H-benzo[b][1,4]oxazin-7-yl)sulfonyl)benzamide] | 2 | 14 |
| CC1(C)CCC(CN2CCN(c3ccc(C(=O)NS(=O)(=O)c4cc5c(c([N+](=O)[O-])c4)N[C@@H](Cc4ccccc4F)CO5)c(Oc4cnc5[nH]ccc5c4)c3)CC2)=C(c2ccc(Cl)cc2)C1 [Example 2-189, (S)-2-((1H-pyrrolo[2,3-b]pyridin-5-yl)oxy)-4-(4-((4′-chloro-5,5-dimethyl-3,4,5,6-tetra-hydro-[1,1′-biphenyl]-2-yl)methyl)piperazin-1-yl)-N-((3-(2-fluorobenzyl)-5-nitro-3,4-dihydro-2H-benzo[b][1,4]oxazin-7-yl)sulfo-nyl)benzamide] | 78 | 148 |
| CC1(C)CCC(CN2CCN(c3ccc(C(=O)NS(=O)(=O)c4cc5c(c([N+](=O)[O-])c4)N[C@@H](Cc4ccc(F)cc4)CO5)c(Oc4cnc5[nH]ccc5c4)c3)CC2)=C(c2ccc(Cl)cc2)C1 [Example 2-190, (S)-2-((1H-pyrrolo[2,3-b]pyridin-5-yl)oxy)-4-(4-((4′-chloro-5,5-dimethyl-3,4,5,6-tetra-hydro-[1,1′-biphenyl]-2-yl)methyl)piperazin-1-yl)-N-((3-(4-fluorobenzyl)-5-nitro-3,4-dihydro-2H-benzo[b][1,4]oxazin-7-yl)sulfo-nyl)benzamide] | 8 | 25 |
| CC1(C)CCC(CN2CCN(c3ccc(C(=O)NS(=O)(=O)c4cc5c(c([N+](=O)[O-])c4)N[C@@H](Cc4ccc(S(C)(=O)=O)cn4)CO5)c(Oc4cnc5[nH]ccc5c4)c3)CC2)=C(c2ccc(Cl)cc2)C1 [Example 2-192, (S)-2-((1H-pyrrolo[2,3-b]pyridin-5-yl)oxy)-4-(4-((4′-chloro-5,5-dimethyl-3,4,5,6-tetra-hydro-[1,1′-biphenyl]-2-yl)methyl)piperazin-1-yl)-N-((3-((5-(methylsulfonyl)pyridin-2-yl)methyl)-5-nitro-3,4-dihydro-2H-benzo [b][1,4]oxazin-7-yl)sulfonyl)benzamide] | 5 | 143 |
| CC1(C)CCC(CN2CCN(c3ccc(C(=O)NS(=O)(=O)c4cc5c(c([N+](=O)[O-])c4)N[C@H](Cc4ccccn4)CO5)c(Oc4cnc5[nH]ccc5c4)c3)CC2)=C(c2ccc(Cl)cc2)C1 [Example 2-199, (R)-2-((1H-pyrrolo[2,3-b]pyridin-5-yl)oxy)-4-(4-((4′-chloro-5,5-dimethyl-3,4,5,6-tetra-hydro-[1,1′-biphenyl]-2-yl)methyl)piperazin-1-yl)-N-((5-nitro-3-(pyridin-2-ylmethyl)-3,4-dihydro-2H-benzo[b][1,4]oxazin-7-yl)sulfonyl)benzamide] | 18 | 55 |
| COc1ccc(C[C@@H]2COc3cc(S(=O)(=O)NC(=O)c4ccc(N5CCN(CC6=C(c7ccc(Cl)cc7)CC(C)(C)CC6)CC5)cc4Oc4cnc5[nH]ccc5c4)cc([N+](=O)[O-])c3N2)nc1 [Example 2-200, (R)-2-((1H-pyrrolo[2,3-b]pyridin-5-yl)oxy)-4-(4-((4′-chloro-5,5-dimethyl-3,4,5,6-tetra-hydro-[1,1′-biphenyl]-2-yl)methyl)piperazin-1-yl)-N-((3-((5-methoxypyridin-2-yl)meth-yl)-5-nitro-3,4-dihydro-2H-benzo[b][1,4]oxazin-7-yl)sulfonyl)benzamide] | 3 | 218 |

Continued, in another order:

| IC50 (RS4;11 cells) [nM] | Compound | IC50 (DOHH2 cells) [nM] |
| --- | --- | --- |
| 1 | CC1(C)CCC(CN2CCN(c3ccc(C(=O)NS(=O)(=O)c4cc5c(c([N+](=O)[O-])c4)NC(C4CCC(O)CC4)CO5)c(Oc4cnc5[nH]ccc5c4)c3)CC2)=C(c2ccc(Cl)cc2)C1 (stereo not drawn) [Example 2-188, 2-((1H-pyrrolo[2,3-b]pyridin-5-yl)oxy)-4-(4-((4′-chloro-5,5-dimethyl-3,4,5,6-tetrahydro-[1,1′-biphenyl]-2-yl)methyl)piperazin-1-yl)-N-((3-(4-hydroxycyclohexyl)-5-nitro-3,4-dihydro-2H-benzo[b][1,4]oxazin-7-yl)sulfonyl)benzamide] | 19 |
| 1 | CN1CCC(C[C@H]2COc3cc(S(=O)(=O)NC(=O)c4ccc(N5CCN(CC6=C(c7ccc(Cl)cc7)CC(C)(C)CC6)CC5)cc4Oc4cnc5[nH]ccc5c4)cc([N+](=O)[O-])c3N2)CC1 [Example 2-193, (S)-2-((1H-pyrrolo[2,3-b]pyridin-5-yl)oxy)-4-(4-((4′-chloro-5,5-dimethyl-3,4,5,6-tetra-hydro-[1,1′-biphenyl]-2-yl)methyl)piperazin-1-yl)-N-((3-((1-methylpiperidin-4-yl)meth-yl)-5-nitro-3,4-dihydro-2H-benzo[b][1,4]oxazin-7-yl)sulfonyl)benzamide] | 28 |
| 5 | CC(=O)N1CCC(C[C@H]2COc3cc(S(=O)(=O)NC(=O)c4ccc(N5CCN(CC6=C(c7ccc(Cl)cc7)CC(C)(C)CC6)CC5)cc4Oc4cnc5[nH]ccc5c4)cc([N+](=O)[O-])c3N2)CC1 [Example 2-194, (S)-2-((1H-pyrrolo[2,3-b]pyridin-5-yl)oxy)-N-((3-((1-acetylpiperidin-4-yl)methyl)-5-nitro-3,4-dihydro-2H-benzo[b][1,4]oxazin-7-yl)sulfonyl)-4-(4-((4′-chloro-5,5-dimethyl-3,4,5,6-tetrahydro-[1,1′-biphenyl]-2-yl)meth-yl)piperazin-1-yl)benzamide] | 74 |
| 4 | COC(=O)N1CCC(C[C@H]2COc3cc(S(=O)(=O)NC(=O)c4ccc(N5CCN(CC6=C(c7ccc(Cl)cc7)CC(C)(C)CC6)CC5)cc4Oc4cnc5[nH]ccc5c4)cc([N+](=O)[O-])c3N2)CC1 [Example 2-195, methyl (S)-4-((7-(N-(2-((1H-pyrrolo[2,3-b]pyridin-5-yl)oxy)-4-(4-((4′-chloro-5,5-dimethyl-3,4,5,6-tetrahydro-[1,1′-biphenyl]-2-yl)methyl)piperazin-1-yl)benzoyl)sulfamoyl)-5-nitro-3,4-dihydro-2H-benzo[b][1,4]oxazin-3-yl)methyl)piperidine-1-carboxylate] | 138 |
| 6 | CC1(C)CCC(CN2CCN(c3ccc(C(=O)NS(=O)(=O)c4cc5c(c([N+](=O)[O-])c4)N[C@@H](CC4CCN(S(C)(=O)=O)CC4)CO5)c(Oc4cnc5[nH]ccc5c4)c3)CC2)=C(c2ccc(Cl)cc2)C1 [Example 2-196, (S)-2-((1H-pyrrolo[2,3-b]pyridin-5-yl)oxy)-4-(4-((4′-chloro-5,5-dimethyl-3,4,5,6-tetra-hydro-[1,1′-biphenyl]-2-yl)methyl)piperazin-1-yl)-N-((3-((1-(methysulfonyl)piperidin-4-yl)methyl)-5-nitro-3,4-dihydro-2H-benzo[b][1,4]oxazin-7-yl)sulfonyl)benzamide] | 94 |
| 22 | CN1CCC(C[C@@H]2COc3cc(S(=O)(=O)NC(=O)c4ccc(N5CCN(CC6=C(c7ccc(Cl)cc7)CC(C)(C)CC6)CC5)cc4Oc4cnc5[nH]ccc5c4)cc([N+](=O)[O-])c3N2)CC1 [Example 2-201, (R)-2-((1H-pyrrolo[2,3-b]pyridin-5-yl)oxy)-4-(4-((4′-chloro-5,5-dimethyl-3,4,5,6-tetra-hydro-[1,1′-biphenyl]-2-yl)methyl)piperazin-1-yl)-N-((3-((1-methylpiperidin-4-yl)meth-yl)-5-nitro-3,4-dihydro-2H-benzo[b][1,4]ox-azin-7-yl)sulfonyl)benzamide] | 145 |
| 36 | COC(=O)N1CCC(C[C@@H]2COc3cc(S(=O)(=O)NC(=O)c4ccc(N5CCN(CC6=C(c7ccc(Cl)cc7)CC(C)(C)CC6)CC5)cc4Oc4cnc5[nH]ccc5c4)cc([N+](=O)[O-])c3N2)CC1 [Example 2-202, methyl (R)-4-((7-(N-(2-((1H-pyrrolo[2,3-b]pyridin-5-yl)oxy)-4-(4-((4′-chloro-5,5-dimethyl-3,4,5,6-tetrahydro-[1,1′-biphenyl]-2-yl)methyl)piperazin-1-yl)benzoyl)sulfamoyl)-5-nitro-3,4-dihydro-2H-benzo[b][1,4]oxazin-3-yl)methyl)piperidine-1-carboxylate] | 63 |
| 20 | CC(=O)N1CCC(C[C@@H]2COc3cc(S(=O)(=O)NC(=O)c4ccc(N5CCN(CC6=C(c7ccc(Cl)cc7)CC(C)(C)CC6)CC5)cc4Oc4cnc5[nH]ccc5c4)cc([N+](=O)[O-])c3N2)CC1 [Example 2-203, (R)-2-((1H-pyrrolo[2,3-b]pyridin-5-yl)oxy)-N-((3-((1-acetylpiperidin-4-yl)methyl)-5-nitro-3,4-dihydro-2H-benzo[b][1,4]oxazin-7-yl)sulfonyl)-4-(4-((4′-chloro-5,5-dimethyl-3,4,5,6-tetrahydro-[1,1′-biphenyl]-2-yl)meth-yl)piperazin-1-yl)benzamide] | 96 |
